Assays:
human P2Y1 receptor = molecular target: T1, human P2Y1 receptor (Homo sapiens, UniProt P47900); experiment: TG-HDL2 internalization by HepG2 cells after P2Y1 receptor silencing by siRNA; assay type: cell-based; conditions: HepG2, pool of 4 P2Y1 siRNAs 100 nM, 48 h; apoA-I 10 μg/ml, ADP 100 nM, AR-C69931MX 100 nM
T1 construct: host or cells: HepG2
Experimental: HepG2 cells were transiently transfected with siRNA designated to human P2Y1 receptor (columns d, e, f, g) or with non specific siRNA as control (a, b, c). 48 hours later, cells were incubated for 10 minutes at 37° C. with 75 μg/ml ^125I-TG HDL2 without (control) or with apolipoprotein A-I 10 μg/ml (a and d), ADP 100 nM (b and e), AR-C69931MX 100 nM (c and f), PBS (g). Data are expressed as a percentage of internalized radioactivity with respect to the control value (set as 0) (n>5); (*) p<0.05 (unpaired t-test).
(§1) Internalization assays were performed as described in Guendouzi et al., (Biochemistry, 1998, 37: 14974-80) on HepG2 cells, obtained from the American Type Culture Collection ([…]). Cells were incubated for 10 minutes at 37° C. with 75 μg/ml of either ^125I-TG-HDL2, ^125I-HDL3 or ^125I-LDL. After washing and dissociation at 4° C. in phosphate buffered saline (PBS), cell radioactivity was determined using a Wallac 1261 multigamma apparatus.
(§2) The silencing of the different P2Y receptors were carried-out using the siRNA technique. The siRNA sequenced targeting human P2Y13 receptor (Gene Bank GB/EMBL/DDBJ accession number AF295368) was from position 406 or 359 relative to the start codon. The siRNA duplex (21-nt-RNAs) in deprotected and desalted form, the siRNA targeting human P2Y1 receptor (a mix of 4 siRNAs, M-005689), and the non-specific control siRNA (D-001206-01) were purchased from Dharmacon Inc. Subconfluent HepG2 cells were transiently transfected with siRNAs (final concentration, 100 nM) using Oligofectamine™ according to the manufacturer's protocole (Invitrogen). Cells were usually assayed 48 hours after transfection. Specific silencing effect was confirmed by at least three independent experiments.
Results are expressed as a percentage of internalization with respect to the control value (set at 0). Control corresponded to a basal value of internalization, amounting to 400 ng, 300 ng, 200 ng of TG-HDL2, HDL3 and LDL per mg of cells protein respectively for 10 minutes. […]

human P2Y13 receptor [1] = molecular target: T2, human P2Y13 receptor (Homo sapiens, UniProt Q9BPV8); experiment: TG-HDL2 internalization by HepG2 cells after P2Y13 receptor silencing by siRNA; assay type: cell-based; conditions: HepG2, P2Y13 siRNA 100 nM, 48 h; apoA-I 10 μg/ml, ADP 100 nM, AR-C69931MX 100 nM
T2 construct: host or cells: HepG2
T2 sequence (Q9BPV8 1-354): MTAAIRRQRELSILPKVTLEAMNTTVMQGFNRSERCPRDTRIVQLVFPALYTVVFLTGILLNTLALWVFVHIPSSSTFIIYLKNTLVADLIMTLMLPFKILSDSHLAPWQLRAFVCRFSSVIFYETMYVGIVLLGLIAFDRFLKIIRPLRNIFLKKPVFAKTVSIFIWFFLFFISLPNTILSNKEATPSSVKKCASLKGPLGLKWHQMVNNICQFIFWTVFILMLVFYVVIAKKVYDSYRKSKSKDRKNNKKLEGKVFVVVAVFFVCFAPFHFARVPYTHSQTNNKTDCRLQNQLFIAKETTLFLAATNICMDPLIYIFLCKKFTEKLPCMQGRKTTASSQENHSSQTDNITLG
Experimental: Experiment was performed as in FIG. 2A with non-specific control siRNA (a, b, c) or with siRNA directed to human P2Y13 receptor (d, e, f, g) (n>7); (*) p<0.05 (unpaired t-test).
as §1, §2
Results are expressed as a percentage of internalization with respect to the control value (set at 0). Control corresponded to a basal value of internalization, amounting to 400 ng, 300 ng, 200 ng of TG-HDL2, HDL3 and LDL per mg of cells protein respectively for 10 minutes. Data as a mean ±SEM of at least 7, 5, 6 independent experiments, for TG-HDL2, HDL3 and LDL respectively.

HepG2 cells [2] = experiment: TG-HDL2 internalization by HepG2 cells; assay type: cell-based, human; conditions: 10 min at 37° C.
Experimental: Cells were incubated for 10 minutes at 37° C. with 75 μg/ml^125I-TG-HDL2 without (control) or with apolipoprotein A-I 10 μg/ml (a), ADP 100 nM (b), AR-C69931MX 100 nM (c), ADP 100 nM+AR-C69931MX 100 nM (d), ADP 100 nM+[…] 100 μM (e), ADP 100 nM+MRS2179 10 μM (f). […] Internalization assays were performed as described in Guendouzi et al., (Biochemistry, 1998, 37: 14974-80) on HepG2 cells, obtained from the American Type Culture Collection ([…]). Cells were incubated for 10 minutes at 37° C. with 75 μg/ml of either ^125I-TG-HDL2, ^125I-HDL3 or ^125I-LDL. After washing and dissociation at 4° C. in phosphate buffered saline (PBS), cell radioactivity was determined using a Wallac 1261 multigamma apparatus. Prior experiments, cells were plated in polylysine-coated 24-multiwell plates (Falcon) at 4×10^4 cells per well. Cells were grown in Dulbecco's modified Eagles medium supplemented with 10% fetal calf serum, 100 units/ml penicillin, and 100 μg/ml streptomycin at 37° C. in a 5% CO2 and 95% air incubator. Medium was changed every 2 or 3 days, and the cells were subcultured every 7-8 days. Results are expressed as a percentage of internalization with respect to the control value (set at 0). Control corresponded to a basal value of internalization, amounting to 400 ng, 300 ng, 200 ng of TG-HDL2, HDL3 and LDL per mg of cells protein respectively for 10 minutes. Data as a mean ±SEM of at least 7, 5, 6 independent experiments, for TG-HDL2, HDL3 and LDL respectively.

human P2Y13 receptor [3] = molecular target: T2, human P2Y13 receptor; experiment: HDL3 internalization by HepG2 cells after P2Y13 receptor silencing by siRNA; assay type: cell-based; conditions: 75 μg/ml 125I-HDL3, ADP 100 nM, AR-C69931MX 100 nM
Experimental: Cells were transiently transfected with siRNA designated to human P2Y13 receptor (column c, d, e). 48 hours later, cells were incubated for 10 minutes at 37° C. with 75 μg/ml ^125I-HDL3 without (control) or with ADP 100 nM (a and c), AR-C69931MX 100 nM (b and d), PBS (e) (n>5); (*) p<0.05 (unpaired t-test).
as §1
The silencing of the different P2Y receptors were carried-out using the siRNA technique. The siRNA sequenced targeting human P2Y13 receptor (Gene Bank GB/EMBL/DDBJ accession number AF295368) was from position 406 or 359 relative to the start codon. […]
(§3) Results are expressed as a percentage of internalization with respect to the control value (set at 0). […]

HepG2 cells [4] = experiment: LDL internalization by HepG2 cells, without or with P2Y13 receptor silencing; assay type: cell-based, human; conditions: HepG2, 75 μg/ml 125I-LDL, 100 nM, both without or with P2Y13 receptors silencing
Experimental: Experiment was performed as in FIG. 2C except that HepG2 cells were incubated for 10 minutes at 37° C. with 75 μg/ml ^125I-LDL (n>6).
as §1
as §2, with “Specific silencing effect was confirmed by at least three independent experiments.” left out
as §3

T1 sequence (P47900 whole entry): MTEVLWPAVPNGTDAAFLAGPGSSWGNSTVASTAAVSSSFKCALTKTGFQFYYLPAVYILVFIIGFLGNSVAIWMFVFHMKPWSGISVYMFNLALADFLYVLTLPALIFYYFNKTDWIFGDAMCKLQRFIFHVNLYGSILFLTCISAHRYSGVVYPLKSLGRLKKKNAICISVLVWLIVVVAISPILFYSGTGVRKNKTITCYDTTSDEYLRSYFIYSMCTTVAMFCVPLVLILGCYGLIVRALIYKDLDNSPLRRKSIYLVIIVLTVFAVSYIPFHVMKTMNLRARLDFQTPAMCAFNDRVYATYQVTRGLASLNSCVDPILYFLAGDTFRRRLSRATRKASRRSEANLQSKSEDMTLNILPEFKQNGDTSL

| SMILES | effect of P2Y1 receptors silencing on the stimulation of TG-HDL2 endocytosis (human P2Y1 receptor) | effect of P2Y13 receptor silencing on TG-HDL2 endocytosis after stimulation (human P2Y13 receptor [1]) | internalization of 125I-TG-HDL2 by HepG2 cells, increase above control cells (HepG2 cells [2]; 75 μg/ml 125I-TG-HDL2, apoA-I 10 μg/ml, ADP 100 nM, AR-C69931MX 100 nM alone) [%] | effect of P2Y13 receptor silencing on HDL3 internalization after stimulation (human P2Y13 receptor [3]) | stimulation of internalization of 125I-labelled LDL (HepG2 cells [4]) | ADP-dependent TG-HDL2 internalization, increase above control cells (HepG2 cells [2]; ADP 100 nM + AR-C69931MX 100 nM) |
| --- | --- | --- | --- | --- | --- | --- |
| Nc1ncnc2c1ncn2[C@@H]1O[C@H](COP(=O)(O)OP(=O)(O)O)[C@@H](O)[C@H]1O [ADP, adenosine diphosphate, reference compound] | no effect | dramatic inhibition | 20 | strong inhibition | lack of stimulation |  |
| CSCCNc1nc(SCCC(F)(F)F)nc2c1ncn2[C@@H]1O[C@H](COP(=O)(O)OP(=O)(O)C(Cl)(Cl)P(=O)(O)O)[C@@H](O)[C@H]1O [AR-C69931MX, N-[2-(methylthio)ethyl]-2-[(3,3,3-trifluoropropyl)thio]-5′-adenylic acid, monoanhydride with dichloromethylenebisphosphonic acid] | no effect | dramatic inhibition |  | strong inhibition | lack of stimulation | over 30% |

Reference: US20070249555A1, “Use of Atp Analogues for Treatment of Cardiovascular Diseases” (INSTITUT NATIONAL DE LA SANTE ET DE LA RECHERCHE MEDICALE …, priority 2004, published 2007)
